The source of these data is ChEMBL document CHEMBL1126639, “Centrally acting serotonergic and dopaminergic agents. 2. Synthesis and structure-activity relationships of 2,3,3a,4,9,9a-hexahydro-1H-benz[f]indole derivatives” (J Med Chem, 1993).

Some results are limits rather than exact numbers.

The target of assay [1] is T1, D(2) dopamine receptor (Rattus norvegicus, UniProt P61169). Kind of assay: Binding affinity for [3H]raclopride-labeled dopamine receptor D2 in rat striatum. Type of assay: tissue-based.
T1 sequence (P61169 whole entry): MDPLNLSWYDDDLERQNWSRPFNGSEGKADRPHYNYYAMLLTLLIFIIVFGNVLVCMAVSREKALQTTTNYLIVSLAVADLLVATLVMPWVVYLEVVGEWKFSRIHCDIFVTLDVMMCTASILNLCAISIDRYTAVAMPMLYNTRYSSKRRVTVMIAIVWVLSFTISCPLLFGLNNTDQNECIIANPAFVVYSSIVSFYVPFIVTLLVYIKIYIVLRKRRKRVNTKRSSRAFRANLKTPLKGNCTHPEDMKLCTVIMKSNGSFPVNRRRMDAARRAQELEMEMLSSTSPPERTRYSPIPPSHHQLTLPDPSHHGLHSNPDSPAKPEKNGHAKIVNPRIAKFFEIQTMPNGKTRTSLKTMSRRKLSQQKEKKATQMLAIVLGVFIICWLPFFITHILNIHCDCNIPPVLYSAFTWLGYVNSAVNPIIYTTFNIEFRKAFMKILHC
The target of assay [2] is T1, D(2) dopamine receptor. Kind of assay: Inhibitory concentration against [3H]raclopride-labeled dopamine receptor D2 in rat striatum was estimated from single point experiment. compound was run at 1 uM.
Assay [3] deals with Mus musculus. Put plainly: Antagonism of apomorphine for 10-20 minutes in reserpinized mice when a dose of 3.6 micro mol/kg is administered intraperitoneally. Type of assay: functional.
The subject of assay [4] is Mus musculus. Kind of assay: Ability to stimulate dopaminergic systems by effect on locomotor activity in reserpinized mice when a dose of 36 micro mol/kg is administered intraperitoneally. Type of assay: functional.
Assay [5] relates to Mus musculus. Put plainly: Antagonism of apomorphine in reserpinized mice when a dose of 36 micro mol/kg is administered intraperitoneally. Type of assay: functional.
For assay [6], the target named is T2, D(2) dopamine receptor (Homo sapiens, UniProt P14416). Kind of assay: Binding affinity against [3H]U-86,170-labeled dopamine receptor D2 in cloned CHO cells. The class given is cell-based.
T2 sequence (P14416 whole entry): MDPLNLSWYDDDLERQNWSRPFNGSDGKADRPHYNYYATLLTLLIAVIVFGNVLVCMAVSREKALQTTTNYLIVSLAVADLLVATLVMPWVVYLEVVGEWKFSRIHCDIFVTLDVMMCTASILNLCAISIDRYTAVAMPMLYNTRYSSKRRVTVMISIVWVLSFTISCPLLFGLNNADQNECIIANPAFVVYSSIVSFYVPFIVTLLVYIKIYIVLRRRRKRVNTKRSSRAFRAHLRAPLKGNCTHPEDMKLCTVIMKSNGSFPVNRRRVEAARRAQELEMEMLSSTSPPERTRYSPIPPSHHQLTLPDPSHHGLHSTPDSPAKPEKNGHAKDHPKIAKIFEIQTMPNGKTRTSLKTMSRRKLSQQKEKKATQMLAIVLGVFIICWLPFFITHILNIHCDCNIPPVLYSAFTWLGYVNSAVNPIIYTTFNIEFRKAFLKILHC
In assay [7] the test system is Mus musculus. Kind of assay: Ability to stimulate dopaminergic systems by effect on locomotor activity in reserpinized mice when a dose of 3.6 micro mol/kg is administered intraperitoneally. Type of assay: functional.
Assay [8] relates to Mus musculus. Kind of assay: Antagonism of apomorphine in reserpinized mice when a dose of 3.6 micro mol/kg is administered intraperitoneally. The class given is functional.
Assay [9] has as its system Mus musculus. Put plainly: Antagonism of apomorphine for 10-20 minutes in reserpinized mice when a dose of 36 micro mol/kg is administered intraperitoneally. Type of assay: functional.
Assay [10] deals with Mus musculus. Kind of assay: Antagonism of apomorphine for 0-10 minutes in reserpinized mice when a dose of 0.4 micro mol/kg is administered intraperitoneally. The class given is functional.
Assay [11] deals with Mus musculus. Put plainly: Ability to stimulate dopaminergic systems by effect on locomotor activity in reserpinized mice when a dose of 0.4 micro mol/kg is administered intraperitoneally. Type of assay: functional.
Assay [12] deals with T1, D(2) dopamine receptor. Kind of assay: Inhibitory concentration against [3H]raclopride-labeled dopamine receptor D2 in rat striatum. Type of assay: tissue-based.
The subject of assay [13] is Mus musculus. Put plainly: Antagonism of apomorphine for 10-20 minutes in reserpinized mice when a dose of 0.4 micro mol/kg is administered intraperitoneally. The class given is functional.
For assay [14], the system named is Mus musculus. Put plainly: Antagonism of apomorphine in reserpinized mice when a dose of 0.4 micro mol/kg is administered intraperitoneally. Type of assay: functional.
In assay [15] the test system is Mus musculus. Kind of assay: Antagonism of apomorphine for 0-10 minutes in reserpinized mice when a dose of 3.6 micro mol/kg is administered intraperitoneally. Type of assay: functional.
For assay [16], the system named is Mus musculus. Put plainly: Antagonism of apomorphine for 0-10 minutes in reserpinized mice when a dose of 36 micro mol/kg is administered intraperitoneally. Type of assay: functional.
The target in assay [17] is T2, D(2) dopamine receptor. Put plainly: Intrinsic activity from GTP shift using CHO cell membranes expressing dopamine receptor D2. Type of assay: functional.
The test system of assay [18] is Mus musculus. Kind of assay: Ability to stimulate dopaminergic systems by effect on locomotor activity in reserpinized mice when a dose of 4.3 micro mol/kg is administered intraperitoneally. Type of assay: functional.
Assay [19] deals with Mus musculus. Kind of assay: Antagonism of apomorphine for 10-20 minutes in reserpinized mice when a dose of 4.3 micro mol/kg is administered intraperitoneally. The class given is functional.
In assay [20] the test system is Mus musculus. Put plainly: Antagonism of apomorphine in reserpinized mice when a dose of 43 micro mol/kg is administered intraperitoneally. Type of assay: functional.
Assay [21] deals with Mus musculus. Put plainly: Antagonism of apomorphine for 0-10 minutes in reserpinized mice when a dose of 4.3 micro mol/kg is administered intraperitoneally. The class given is functional.
Assay [22] has as its system Rattus norvegicus. Kind of assay: Effect on the synthesis rates of serotonin (5-HTP accumulation) in the rat ventral limbic brain region 43.2 umol/kg. Type of assay: functional, Limbic system.
Assay [23] deals with Mus musculus. Kind of assay: Ability to stimulate dopaminergic systems by effect on locomotor activity in reserpinized mice when a dose of 43 micro mol/kg is administered intraperitoneally. Type of assay: functional.
Assay [24] has as its system Mus musculus. Put plainly: Antagonism of apomorphine for 10-20 minutes in reserpinized mice when a dose of 43 micro mol/kg is administered intraperitoneally. Type of assay: functional.
The test system of assay [25] is Rattus norvegicus. Put plainly: Effect on the synthesis rates of dopamine (DOPA accumulation) in the rat ventral limbic brain region at 43.2 uM/kg. The class given is functional, Limbic system.
Assay [26] concerns Mus musculus. Kind of assay: Antagonism of apomorphine for 0-10 minutes in reserpinized mice when a dose of 43 micro mol/kg is administered intraperitoneally. The class given is functional.
In assay [27] the test system is Mus musculus. Kind of assay: Antagonism of apomorphine in reserpinized mice when a dose of 4.3 micro mol/kg is administered intraperitoneally. Type of assay: functional.
In assay [28] the test system is Rattus norvegicus. Kind of assay: Inhibition of firing rates of dopaminergic neurons in the substantia nigra pars compacta by intravenous injection in rats. Type of assay: functional.

On to `COc1cccc2c1C[C@H]1CCN(CC3CC3)[C@H]1C2` (racemic), for which the affinity on D(2) dopamine receptor [1] corresponds to a Ki of 748 nM.
For `C=CCN1CC[C@@H]2Cc3cccc(OC)c3C[C@@H]21` (racemic), the half-maximal inhibitory concentration (IC50) on D(2) dopamine receptor [2] is above 1000 nM.
On to `CCCN1CC[C@@H]2Cc3c(cccc3OC)C[C@H]21`, for which the Locomotor activity is on record as 12 in the assay with Mus musculus [3]; 308 with Mus musculus [4]; 14 with Mus musculus [5]; 851 in the assay on Mus musculus [7]; 72 with Mus musculus [8]; 20 in the assay with Mus musculus [9]. In addition, the Locomotor activity in the assay on Mus musculus [10] is reported as 20; with Mus musculus [11] it was 581; with Mus musculus [13], 30; in the assay with Mus musculus [14], 86; in the assay with Mus musculus [15] it was 18; in the assay with Mus musculus [16] it was 21. Also, on D(2) dopamine receptor [6], the affinity, expressed as Ki, was 75 nM. On D(2) dopamine receptor [12], this molecule returned an IC50 above 1000 nM.
With `CCCN1[C@H](C)C[C@@H]2Cc3cccc(OC)c3C[C@@H]21` (racemic), on D(2) dopamine receptor [12], the IC50 was above 1000 nM.
As to `C=CCN1CC[C@@H]2Cc3c(cccc3OC)C[C@@H]21` (racemic), on D(2) dopamine receptor [1], the inhibitory constant (Ki) worked out at 429 nM.
At D(2) dopamine receptor [12], `CCCN1CC[C@@H]2Cc3c(cccc3OC)C[C@@H]21` (racemic) returned an IC50 above 1000 nM.
Consider `Oc1cccc2c1C[C@H]1CCN(CC3CC3)[C@@H]1C2` (racemic), for which the Locomotor activity in the assay on Mus musculus [3] came to 60; in the assay with Mus musculus [4] it was 1033; with Mus musculus [5], 117; in the assay on Mus musculus [7] it was 539; in the assay with Mus musculus [8], 163; in the assay with Mus musculus [9] it was 49. The Locomotor activity in the assay on Mus musculus [10] was determined as 83; with Mus musculus [11] it was 1; in the assay with Mus musculus [13], 88; in the assay on Mus musculus [14], 129; in the assay on Mus musculus [15], 31; in the assay on Mus musculus [16], 25. In addition, the Intrinsic activity on D(2) dopamine receptor [17] was 73%. This molecule had a Ki on D(2) dopamine receptor [1] of 118 nM.
For `C=CCN1CC[C@@H]2Cc3c(O)cccc3C[C@H]21` (racemic), the Intrinsic activity on D(2) dopamine receptor [17] is 91%.
Same read-out and setting: with `CCCN1CC[C@@H]2Cc3c(O)cccc3C[C@H]21` (racemic) [listing 1 of 2 here] the figure was 79%.
As for `CCCN1CC[C@@H]2Cc3c(O)cccc3C[C@H]21` (racemic) [listing 2 of 2 here], the Locomotor activity with Mus musculus [18] was found to be 912; in the assay with Mus musculus [19], 38; with Mus musculus [20] it was 114; in the assay on Mus musculus [21] it was 46; with Mus musculus [23] it was 1539; in the assay on Mus musculus [24], 23. In addition, the Locomotor activity turned out to be 41 in the assay on Mus musculus [10]; 423 in the assay on Mus musculus [11]; 71 with Mus musculus [13]; 29 in the assay with Mus musculus [26]; 69 with Mus musculus [27]; 98 with Mus musculus [14]. In addition, the Ki was 2.4 nM on D(2) dopamine receptor [6] and 17 nM at D(2) dopamine receptor [1]. Further, the Control with Rattus norvegicus [22] is reported as -4%; in the assay with Rattus norvegicus [25] it was -47%. In the assay on Rattus norvegicus [28], the median effective dose (ED50) was found to be 0.003 µmol/kg.
